The numbers were not newly measured in patent US10448644B2, “Fungicide composition for natural fibers and natural fiber components” (Lisa Draexlmaier Gmbh, priority 2014, dated 2019), which cites them from elsewhere.

The conditions of data set [1]: according to the German Federal Institute for Health Protection and Veterinary Medicine.
The conditions of data set [2]: animal experiments.

As for `c1ccc2[nH]c(-c3cscn3)nc2c1` [thiabendazole], in data set [1], the toxicity entry is given as “low”. Further, in data set [2], the carcinogenic effect entry is reported as “found to have a carcinogenic effect”.
